The source of these data is US6562837B1, “Use of tetrahydroisoquinoline compounds for the treatment of septicemia” (Korea Institute of Science & Technology, priority 1998, dated 2003).

For test [1], the system named is iNOS mRNA. As to the kind of experiment: Suppression of LPS-induced iNOS mRNA expression in rat isolated aorta (Northern blot). It counts as cell-based. Conditions: LPS 300 ng/ml, 8 hours; compound 10, 30 and 100 μM; FIG. 1. As for the experimental part:
Rats were anesthetized with pentobarbital sodium (50 mg/kg) and the aorta was isolated, followed by removing endothelium from the aorta. After being incubated at 37° C. for 8 hours in a Krebs solution containing 300 ng/ml of LPS, the aorta was subjected to total RNA extraction with the aid of a trizol solution (GibcoBRL). After quantification by use of a UV spectrophotometer (Shimadzu, UV-1201), the total RNA obtained was electrophoresed on a formamide-formaldehyde agarose gel and transferred to a nylon membrane. Thereafter, the total RNA on the nylon membrane was hybridized with cDNA probes for iNOS to determine the expression level of iNOS mRNA, in which the cDNA of iNOS was labeled with ^32P-dCTP by a random-primer method. For quantification, an x-ray film was exposed to the radioactive irradiation from the nylon membrane and developed to compare the dot sizes of desired objects with those of GAPDH (glyceraldehyde-3-phosphate dehydrogenase).
When aortic preparations were incubated, in vitro, the blood vessel was cultured, in vitro, in the presence of LPS, iNOS mRNA was transcribed in a large amount. […]

The test system of test [2] is iNOS mRNA in macrophages (RAW 264.7 cells). As to the kind of experiment: Suppression of LPS- and IFN-γ-induced iNOS mRNA expression in macrophage (Northern blot). It counts as cell-based. Conditions: LPS 100 ng/ml + IFN-γ 10 U/ml, 18 hours, compound 1, 10 and 100 μM, FIG. 2. The procedure: In a DMEM medium supplemented with thermally treated 10% fetal calf serum, penicillin (100 U/ml) and streptomycin ([…]), macrophages (RAW 264.7 cells) were cultured to be confluent in a CO2 incubator. After being transferred to a serum-free DMEM medium, the cells were cultured for additional 24 hours and then, further for 18 hours in the presence of LPS (100 ng/ml) and interferon-γ (hereinafter referred to as “IFN-γ”; 10 U/ml), and/or the compound of Chemical Formula 2 (0, 1, 10, and 100:μM). Using a trizol solution, the total RNA was extracted from the cultured macrophages. After quantification in a spectrophotometer, the total RNA obtained was electrophoresed on a formamide-formaldehyde agarose gel and transferred to a nylon membrane. Thereafter, the total RNA on the nylon membrane was hybridized with cDNA probes for iNOS to determine the expression level of iNOS mRNA, in which the cDNA of iNOS was labeled with ^32P-dCTP by a random-primer method. For quantification, an x-ray film was exposed to the radioactive irradiation from the nylon membrane and developed to compare the radioactivity level of desired objects with those of GAPDH. […]

On to `Oc1cc2c(cc1O)C(Cc1cccc3ccccc13)NCC2` (stereo not drawn) [Compound 1, 1-α-naphthylmethyl-6,7-dihydroxy-1,2,3,4-tetrahydroisoquinoline], for which the “LPS-induced iNOS mRNA expression in isolated rat aorta” value in test [1] was “inhibits the LPS-induced iNOS mRNA expression in a concentration-dependent manner”.
With `Oc1cc2c(cc1O)C(Cc1ccc3ccccc3c1)NCC2` (stereo not drawn) [Compound 2, 1-β-naphthylmethyl-6,7-dihydroxy-1,2,3,4-tetrahydroisoquinoline], the “LPS/IFN-γ-induced iNOS mRNA expression in macrophages” value in test [2] is given as “inhibits the LPS/IFN-γ-induced iNOS mRNA expression in a concentration-dependent manner”.
